Source: the METLIN SMRT retention time set (Domingo-Almenara et al. 2019)

Assay: gradient 5% acetonitrile 3 min, to 50% in 2 min, to 85% in 15 min, held 3 min, 100 µL/min
Settings: column: Zorbax Extend-C18 2.1 x 50 mm; eluents: water / acetonitrile, 0.1% formic acid
Summary of the method: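 Over 3 months, pure standards in mixtures of ~100 molecules were run by HPLC coupled to a quadrupole time-of-flight mass spectrometer in positive and negative ionization mode. The column was a Zorbax Extend-C18 (2.1 × 50 mm, 1.8 μm) at 100 μL/min, eluted with water and acetonitrile each holding 0.1% formic acid, with 40 μL dead and 900 μL dwell volumes. Retention time was determined from adduct peaks chosen by software and checked manually.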

Row | SMILES | RP-LC retention time
1 | COc1cccc(-c2cc(N3CCN(C(=O)Nc4ccc5c(c4)OCCO5)CC3)ncn2)c1 | 660 s
2 | COc1ccc(NC(=O)N2CCC(Cc3nc4cccnc4n3C(C)C)C2)c(OC)c1 (centres undefined) | 626 s
3 | C=CCn1c(=O)c2ccccc2n(Cc2nc(-c3ccc(SC)cc3)no2)c1=O | 1100 s
4 | CC(=O)Nc1ccc(NC(=O)c2cc3sccc3n2Cc2ccc(F)cc2)cc1 | 911 s
5 | Cc1ccc(NC(=O)Cn2cnc3c(sc4nc(-c5ccccc5)ccc43)c2=O)c(C)c1 | 1060 s
6 | CC(C)OCCCNC(=O)CCC(=O)N1CC2CCCN2c2ccccc21 (centres undefined) | 822 s
7 | Cc1cc(N2CCN(C(=O)c3cccc(N(C)C)c3)CC2)nc2nncn12 | 1010 s
8 | CCc1nc2c(c(=O)n1CC(=O)NCc1ccccc1)CN(Cc1ccccc1)CC2 | 629 s
9 | CSc1nc(NC(C)C)c(C#N)c(-c2ccccc2)n1 | 1190 s
10 | O=C(CCSc1ccccc1)N1CCN(c2ccc(-c3ccccn3)nn2)CC1 | 644 s
11 | Cc1sc2ncn3c(=O)n(CC(=O)N4CCc5ccccc5C4)nc3c2c1C | 894 s
12 | CCN1C(=O)COc2ccc(-c3nc(NC(=O)CC(C)C)sc3C)cc21 | 962 s
13 | COC(=O)c1cc2ccsc2n1Cc1cccc(C#N)c1 | 1010 s
14 | O=C(NCc1[nH]nc2ccccc12)c1ccc(Cl)cc1 | 779 s
15 | CCC(CC)CN1CCC(n2c(C)cnc2-c2cccnc2)C1 (centres undefined) | 545 s
16 | CC(=O)N1CCN(c2nc(C)cc(N3CCCCC3)n2)CC1 | 598 s
17 | Cc1nn(CC(=O)N2CCN(C)CC2)c(=O)c2nc(-c3ccccc3)sc12 | 616 s
18 | COCCn1ncc(N2CCC(NC(=O)C(C)(C)C)CC2)cc1=O | 607 s
19 | CCCCN(C)C(=O)CSc1ncc(S(=O)(=O)c2cccs2)c(N)n1 | 749 s
20 | CCCOCCOC(=O)C1=C(C)NC2=C(C(=O)C(C(=O)OC)C(C)C2)C1c1ccccc1F (centres undefined) | 946 s
21 | COc1cccc(COC(=O)C2=CN(Cc3ccccc3)S(=O)(=O)N=C2C)c1 | 1090 s
22 | COc1ccc(-c2noc(CN3C(=O)COc4cc(C(C)(C)C)ccc43)n2)cc1OC | 1110 s
23 | Cc1cc(C)cc(-n2ncc3c(N4CCC(C(N)=O)CC4)ncnc32)c1 | 724 s

Row | SMILES | RP-LC retention time
24 | O=c1ccn(-c2ccc(F)c(F)c2)nc1-c1nc(-c2ccccc2)no1 | 878 s
25 | Cc1ccc(-c2cn3cccnc3n2)cc1NC(=O)c1ccccc1Br | 682 s
26 | Cc1[nH]c(C(=O)N2CCCC(C(=O)NCc3ccc(OC(C)C)cc3)C2)c(C)c1C(=O)OC(C)C (centres undefined) | 929 s
27 | CCC(C)NC(=O)Cn1nc2nc(Nc3ccc(F)cc3)ccn2c1=O (centres undefined) | 684 s
28 | Cn1cc(C2=CCN(C(=O)NC(C)(C)C)CC2)c2cccnc21 | 604 s
29 | CCCn1cc(CCNC(=O)c2ccc(Cl)s2)c2cccnc21 | 833 s
30 | COc1ccc(C2NC(=O)NC(C)=C2C(=O)OCCc2ccccc2)c(OC)c1 (centres undefined) | 957 s
31 | Cc1ccc(-c2nnc(SCc3noc(CCC(=O)Nc4cc(C)on4)n3)o2)cc1 | 846 s
32 | O=C(Nc1c(-c2ccc(F)cc2)nc2ccccn12)c1ccc2c(c1)OCO2 | 651 s
33 | CN1CCN(C(c2cccnc2)c2c(NC(=O)c3ccco3)sc3c2CCCC3)CC1 (centres undefined) | 611 s
34 | CNC(=O)c1cn(-c2ccc(-c3nc(C(C)(C)C)no3)cn2)cn1 | 806 s
35 | CC(C)(C)NC(=O)N1[C@H]2CC[C@@H]1c1cnc(-c3ccccc3)nc1C2 | 865 s
36 | CCOc1ccccc1NC(=O)CSc1nnc2c3cc(-c4ccc(C)c(C)c4)nn3ccn12 | 1090 s
37 | Cc1nc(-c2ccncc2)nc2c1CCC(=O)N2CCCN(C)C | 549 s
38 | CCOC(=O)CC(=O)CSc1nc2sc(C)cc2c(=O)n1C | 961 s
39 | COc1cc(NC(=O)c2c(OC)cc(=O)n3c2CCCC3)cc(OC)c1OC | 779 s
40 | Cc1nc(Nc2ccc(F)cn2)sc1C(=O)N1CCN(c2ccc(F)cc2)CC1 | 861 s
41 | O=c1c2cc(-c3ccc4c(c3)OCO4)nn2ccn1Cc1cccc(F)c1 | 981 s
42 | O=C(CCc1ccccc1)N1CCN(c2cc(-c3cccs3)[nH]n2)CC1 | 808 s
43 | COC(=O)c1ccc2c(=O)n(Cc3cccc(OC)c3)c(N3CCN(c4ccccn4)CC3)nc2c1 | 741 s
44 | CC(NC(=O)c1ccncc1)C(=O)Nc1nc2ccccc2[nH]1 (centres undefined) | 566 s
45 | CN(C)c1ccc(/C=C(\C#N)C(=O)c2ccccc2)cc1 | 1100 s

Further lines, results first:

Row | RP-LC retention time | SMILES
46 | 881 s | Cc1cccc(N2CCN(S(=O)(=O)c3ccc4c(c3)CCCC(=O)N4)CC2C)c1 (centres undefined)
47 | 746 s | COc1ccc(OC)c(NC(=O)N2CCC(N3CCN(Cc4ccccc4)C(=O)C3=O)CC2)c1
48 | 881 s | O=C1CN(S(=O)(=O)c2ccc(F)c(Cl)c2)CC2(CCOCC2)N1CC1CC1
49 | 1010 s | O=C(N1CCC(Cc2noc(-c3ccc(F)cc3)n2)C1)C1(c2ccccc2)CC1 (centres undefined)
50 | 861 s | CCOCCCNC(=O)C1CCN(c2nccnc2Oc2cccc(C)c2)CC1
51 | 575 s | Cn1cccc1C(CNS(=O)(=O)c1ccc(F)c(Cl)c1)N1CCOCC1 (centres undefined)
52 | 616 s | Cn1cccc(C(=O)N2CCC3(CC2)OCCN3S(=O)(=O)c2ccccc2)c1=O
53 | 1060 s | CCOC(=O)c1nc(NCC2CCN(Cc3ccccc3Cl)CC2)c2ccccc2n1
54 | 717 s | CC(=O)c1ccc(NC(=O)CN2C(=O)NC3(CCCCC3)C2=O)cc1
55 | 723 s | COc1ccc(OC)c(C2CN(C(=O)c3ccc4c(c3)OCO4)CC2C(=O)N2CCCC2)c1 (centres undefined)
56 | 708 s | CCCNC(=O)C1CC(=O)N(CCc2c[nH]c3ccc(Cl)cc23)C1 (centres undefined)
57 | 766 s | CSc1ccc(CNC(=O)C2CCN(Cc3cn(C)c4ccc(Cl)cc34)CC2)cc1
58 | 692 s | Cc1ccn2cc(C(=O)N3CCN(c4cccc(Cl)c4)CC3)nc2c1
59 | 738 s | Cn1c(=O)n(C)c2cc(CNc3cc(C(=O)O)ccc3Cl)ccc21
60 | 663 s | CCC1CN2C=NC(N3CCN(C(=O)Nc4cccc(SC)c4)CC3)=CC2=N1 (centres undefined)
61 | 762 s | CCOC(=O)c1ccc(NC(=O)C2CCCN(S(C)(=O)=O)C2)cc1 (centres undefined)
62 | 668 s | Cc1ccc(N2CCN(C(=O)c3ccc4ncnc(N5CCCC5)c4c3)CC2)cc1
63 | 842 s | CCc1onc(C)c1C1CCCN1C(=O)Nc1cccc(C)c1 (centres undefined)
64 | 848 s | CCn1ncn2cc(S(=O)(=O)Nc3ccc(F)cc3)cc2c1=O
65 | 977 s | O=C(NCCc1cccs1)c1nnc(-c2ccc(S(=O)(=O)N3CCCCC3)cc2)o1
66 | 776 s | Cc1noc(C2CN(C(=O)Nc3ccc(C)c(F)c3)CC23CCOCC3)n1 (centres undefined)
67 | 933 s | Cc1ccc(-c2nnc(N3CCC(C(=O)NCc4cccs4)CC3)o2)cc1

Row | RP-LC retention time | SMILES
68 | 896 s | CC1CCC(NC(=O)C2CCN(S(=O)(=O)c3ccc4c(c3)sc(=O)n4C)CC2)CC1 (centres undefined)
69 | 1010 s | COc1ccccc1-c1nnc(-c2ccc(OC)c(S(=O)(=O)N3CCCCCC3)c2)o1
70 | 726 s | Cc1ccc(-c2ncccc2CNS(=O)(=O)c2cccc(C)c2)cc1
71 | 573 s | CS(=O)(=O)N1CCCc2cc(C(=O)NCCN3CCOCC3)ccc21
72 | 845 s | O=C1COc2ccc(S(=O)(=O)N3CCCC3C(=O)Nc3ccc(F)c(Cl)c3)cc2N1 (centres undefined)
73 | 981 s | COCCn1cc2c3c(cccc31)CN(C(=O)Nc1cccc(Cl)c1)CC2
74 | 649 s | CN(C)C(=O)N1CCc2nn(Cc3ccccc3)c(=O)n2CC1
75 | 790 s | CC(C)CNC(=O)CN1CCN(Cc2ccc(F)cc2Cl)C1=O
76 | 730 s | Cc1ccccc1C(=O)CC1(O)C(=O)Nc2ccc(F)cc21 (centres undefined)
77 | 748 s | O=C(CCn1c(N2CCCC2)nc2ccsc2c1=O)NCc1ccccc1F
78 | 699 s | O=C(Nc1ccc(F)cc1)N1CCC(N2CC(F)(F)C[C@H]2COCC2CC2)CC1
79 | 1020 s | CCc1nn(CC)c(=O)c2cc(S(=O)(=O)NCc3ccc(F)cc3Cl)cn12
80 | 752 s | O=C(C1CC(=O)N(c2n[nH]c3cccc(F)c23)C1)N1CCc2ccccc2C1 (centres undefined)
81 | 764 s | CCC(=O)N(C1CCOCC1)C1CCN(S(=O)(=O)c2ccccc2)CC1
82 | 1180 s | O=C(NC1CCCCC1)c1cc2ccccc2cc1O
83 | 540 s | Cn1c(C2CCN(C(=O)c3ccc(Cl)cc3)C2)nc2ccncc21 (centres undefined)
84 | 881 s | CCC(=O)N1c2ccc(S(=O)(=O)CCC(=O)N3CCCc4ccccc43)cc2CC1C (centres undefined)
85 | 772 s | Cc1nnc(-c2nnc(NCC3CCCCC3)c3ccccc23)o1
86 | 609 s | CN1CC(c2nc(C3CC3)no2)C2(CCN(C(=O)c3ccc4c(c3)OCO4)CC2)C1 (centres undefined)
87 | 649 s | CCOc1ccc(C(C)NC(=O)C2CCN(c3cncnc3N3CCOCC3)CC2)cc1 (centres undefined)
88 | 1010 s | COc1cccc2c1OC1(C)CC2C(S(=O)(=O)c2ccc(C(C)(C)C)cc2)C(=O)N1 (centres undefined)
89 | 655 s | NC(=O)C1CCN(C(=O)c2ccc(Cn3c(=O)c4cccn4c4cccnc43)cc2)CC1
